Source: PubChem BioAssay AID1963977 (Molecular Pharmacology Branch, DTP, NCI, 2024)

System: 624824-186-R-J3-PDC multicell spheroids, viability
Assay: Anticancer human tumor 624824-186-R-J3-PDC patient-derived colon adenocarcinoma cell line growth inhibition [PI3K]
Settings: for viability, T/C: stronger effect = lower value
Excerpt: Combinatorial screen of targeted agents with the PI3K inhibitors inavolisib, alpelisib, duvelisib, and copanlisib in multi-cell type tumor spheroids
A high-throughput screen of multi-cell type tumor spheroids was designed to identify active combinations of targeted small molecules and PI3K pathway inhibitors. Complex spheroids include a stromal component modeled by human endothelial cells (HUVEC) and fibroblasts modeled by human mesenchymal stem cells (MSCs). The concentration ranges selected for each drug and investigational agent were based upon clinically achievable concentrations if the clinical Cmax of the agent was known.
Compounds. The drugs and investigational agents: inavolisib (NSC800729), alpelisib (NSC765974), duvelisib (NSC772469), copanlisib (NSC816437), ipatasertib (NSC767898), afuresertib (NSC778305), talazoparib (NSC767125), sapanisertib (NSC764658), selumetinib (NSC741078), tovorafenib (DAY101, NSC766906), vemurafenib (NSC761431), ravoxertinib (NSC781343), sotorasib (NSC818433), MRTX1133 (NSC 836407), abemaciclib (NSC 768073), palbociclib (NSC758247), venetoclax (NSC 766270), SY5609 (NSC837396), enzalutamide (NSC755605), and darolutamide (NSC825331), were obtained from the National Cancer Institute (NCI) Developmental Therapeutics Program Chemical Repository. The FDA-approved anticancer drug set is available from the NCI Developmental Therapeutics Program. […] The stock solutions were prepared in dimethyl sulfoxide (DMSO, Sigma-Aldrich, St. Louis, MO, cat. D2650) at 800-fold the tested concentration and stored at -70 degrees C prior to their use. All drugs and investigational agents were tested over a range starting from a high concentration at or near the clinical Cmax and decreasing in half-log increments. If the clinical Cmax for an agent had not been determined, the highest concentration tested was 10 microM.
Cell Culture. All cells were maintained in an incubator at 37 degrees C and 5% CO2 with 95% humidity. The PDC lines were cultured according to standard operating procedures established by the NCI PDMR (https://pdmr.cancer.gov/sops/default.htm). All PDCs were thawed and cultured in Matrigel-coated flasks prepared with a working solution of 1X Ham's F-12 nutrient mix, without supplementation (Invitrogen, Waltham, MA, cat. 11765054), 100 U/mL penicillin-streptomycin (Invitrogen, cat. 15140122), and 2.5% Matrigel (Corning Inc., Corning, NY, cat. 354248) for the first three passages. The 354836-022-R-J1-PDC, 475296-252-R-J1-PDC, and 997726-040-R-J2-PDC lines were cultured in 6A media, which includes advanced DMEM/F-12 (Thermo Fisher Scientific, cat. 12634028), 10 mM HEPES (Thermo Fisher Scientific, cat. 15630080), 1X GlutaMAX supplement (Thermo Fisher Scientific, cat. 35050061), 0.1 mg/mL primocin (InvivoGen, San Diego, CA, cat. ant-pm-2), 10% defined fetal bovine serum, heat inactivated (HyClone Laboratories Inc., Logan, UT, cat. SH30070.03HI), 50% L-WRN conditioned media (ATCC, cat. CRL-3276), 1.25 mM N-Acetyl-L-cysteine (Sigma-Aldrich, cat. A9165), 10 mM nicotinamide (Sigma-Aldrich, cat. N0636), 1X B-27 supplement (Thermo Fisher Scientific, cat. 17504044), 1X N-2 supplement (Thermo Fisher Scientific, cat. 17502048), and 10 microM Y-27632 dihydrochloride (Tocris Bioscience, Bristol, United Kingdom, cat. 1254). The 624824-186-R-J2-PDC line was cultured in 6C/Colon 1B media, which includes all 6A media components plus 50 ng/mL human EGF recombinant protein (Thermo Fisher Scientific, cat. PHG0311). […]

[1] = curve of first compound, second compound 0.0316 µM
[2] = curve of first compound, second compound 0.1 µM
[3] = curve of first compound, second compound 0.316 µM
[4] = curve of first compound, second compound 1 µM
[5] = curve of first compound, second compound 3.16 µM
[6] = curve of first compound, second compound 10 µM
[7] = second compound 0.0316 µM, first compound 0.0316 µM
[8] = second compound 0.0316 µM, first compound 0.1 µM
[9] = second compound 0.0316 µM, first compound 0.316 µM
[10] = second compound 0.0316 µM, first compound 1 µM
[11] = second compound 0.1 µM, first compound 0.0316 µM
[12] = second compound 0.1 µM, first compound 0.1 µM
[13] = second compound 0.1 µM, first compound 0.316 µM
[14] = second compound 0.1 µM, first compound 1 µM
[15] = second compound 0.316 µM, first compound 0.0316 µM
[16] = second compound 0.316 µM, first compound 0.1 µM
[17] = second compound 0.316 µM, first compound 0.316 µM
[18] = second compound 0.316 µM, first compound 1 µM
[19] = second compound 1 µM, first compound 0.0316 µM
[20] = second compound 1 µM, first compound 0.1 µM
[21] = second compound 1 µM, first compound 0.316 µM
[22] = second compound 1 µM, first compound 1 µM
[23] = second compound 3.16 µM, first compound 0.0316 µM
[24] = second compound 3.16 µM, first compound 0.1 µM
[25] = second compound 3.16 µM, first compound 0.316 µM
[26] = second compound 3.16 µM, first compound 1 µM
[27] = second compound 10 µM, first compound 0.0316 µM
[28] = second compound 10 µM, first compound 0.1 µM
[29] = second compound 10 µM, first compound 0.316 µM
[30] = second compound 10 µM, first compound 1 µM
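Note: spheroids exposed to agents for seven days before luminescence read.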
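Throughout, for viability, T/C: luminescent signal used as a stand-in for spheroid viability; percent viability relative to DMSO vehicle control wells taken as 100%.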

## CCN1CCN(Cc2ccc(Nc3ncc(F)c(-c4cc(F)c5nc(C)n(C(C)C)c5c4)n3)nc2)CC1 + Cc1nc(NC(=O)N2CCCC2C(N)=O)sc1-c1ccnc(C(C)(C)C(F)(F)F)c1
[1]
  IC50: > 1 µM
[2]
  IC50: > 1 µM
[3]
  IC50: > 1 µM
[4]
  IC50: > 1 µM
[5]
  IC50: 0.753 µM
[6]
  IC50: 0.0296 µM
Second compound 0.0316 µM, first compound 0.00316 µM
  viability, T/C: 106%
Second compound 0.0316 µM, first compound 0.01 µM
  viability, T/C: 99.3%
[7]
  viability, T/C: 106%
[8]
  viability, T/C: 108%
[9]
  viability, T/C: 100%
[10]
  viability, T/C: 94.2%
Second compound 0.1 µM, first compound 0.00316 µM
  viability, T/C: 106%
Second compound 0.1 µM, first compound 0.01 µM
  viability, T/C: 109%
[11]
  viability, T/C: 112%
[12]
  viability, T/C: 107%
[13]
  viability, T/C: 97.5%
[14]
  viability, T/C: 89.6%
Second compound 0.316 µM, first compound 0.00316 µM
  viability, T/C: 102%
Second compound 0.316 µM, first compound 0.01 µM
  viability, T/C: 116%
[15]
  viability, T/C: 97.4%
[16]
  viability, T/C: 94.6%
[17]
  viability, T/C: 88.1%
[18]
  viability, T/C: 73.1%
Second compound 1 µM, first compound 0.00316 µM
  viability, T/C: 101%
Second compound 1 µM, first compound 0.01 µM
  viability, T/C: 105%
[19]
  viability, T/C: 98.1%
[20]
  viability, T/C: 81.6%
[21]
  viability, T/C: 62.9%
[22]
  viability, T/C: 58.3%
Second compound 3.16 µM, first compound 0.00316 µM
  viability, T/C: 85.3%
Second compound 3.16 µM, first compound 0.01 µM
  viability, T/C: 92%
[23]
  viability, T/C: 77.8%
[24]
  viability, T/C: 57%
[25]
  viability, T/C: 47.9%
[26]
  viability, T/C: 51.6%
Second compound 10 µM, first compound 0.00316 µM
  viability, T/C: 64.6%
Second compound 10 µM, first compound 0.01 µM
  viability, T/C: 59.6%
[27]
  viability, T/C: 50.4%
[28]
  viability, T/C: 41.5%
[29]
  viability, T/C: 36.6%
[30]
  viability, T/C: 48.6%

## CC(Cn1ccc(-c2ccc(C#N)c(Cl)c2)n1)NC(=O)c1cc(C(C)O)[nH]n1 (stereo unspecified)
Compound 0.0316 µM
  viability, T/C: 96.5% [middle of 4 runs]
Compound 0.1 µM
  viability, T/C: 97.2% [middle of 4 runs]
Compound 0.316 µM
  viability, T/C: 105% [middle of 4 runs]
Compound 1 µM
  viability, T/C: 95.5% [middle of 4 runs]
Compound 3.16 µM
  viability, T/C: 99.4% [middle of 4 runs]
Compound 10 µM
  viability, T/C: 104% [middle of 4 runs]
Curve of compound
  IC50: > 10 µM

## CC1(C)CCC(Nc2ncc(C(F)(F)F)c(-c3c[nH]c4c(P(C)(C)=O)c(C#N)ccc34)n2)CN1 (stereo unspecified) + CC(Nc1ncnc2nc[nH]c12)c1cc2cccc(Cl)c2c(=O)n1-c1ccccc1
[1]
  IC50: 5.14 µM
[2]
  IC50: 5.36 µM
[3]
  IC50: 5.34 µM
[4]
  IC50: 5.19 µM
[5]
  IC50: 5.01 µM
[6]
  IC50: 3.65 µM
[7]
  viability, T/C: 99%
[8]
  viability, T/C: 85.7%
[9]
  viability, T/C: 92.2%
[10]
  viability, T/C: 92.5%
Second compound 0.0316 µM, first compound 3.16 µM
  viability, T/C: 83.8%
Second compound 0.0316 µM, first compound 10 µM
  viability, T/C: 3.64%
[11]
  viability, T/C: 115%
[12]
  viability, T/C: 89%
[13]
  viability, T/C: 89.2%
[14]
  viability, T/C: 99%
Second compound 0.1 µM, first compound 3.16 µM
  viability, T/C: 89%
Second compound 0.1 µM, first compound 10 µM
  viability, T/C: 3.93%
[15]
  viability, T/C: 99.2%
[16]
  viability, T/C: 92.4%
[17]
  viability, T/C: 82.2%
[18]
  viability, T/C: 85.1%
Second compound 0.316 µM, first compound 3.16 µM
  viability, T/C: 88.1%
Second compound 0.316 µM, first compound 10 µM
  viability, T/C: 4.29%
[19]
  viability, T/C: 90.8%
[20]
  viability, T/C: 86.2%
[21]
  viability, T/C: 87.3%
[22]
  viability, T/C: 95.5%
Second compound 1 µM, first compound 3.16 µM
  viability, T/C: 84.8%
Second compound 1 µM, first compound 10 µM
  viability, T/C: 3.92%
[23]
  viability, T/C: 79.5%
[24]
  viability, T/C: 82.5%
[25]
  viability, T/C: 78%
[26]
  viability, T/C: 80.9%
Second compound 3.16 µM, first compound 3.16 µM
  viability, T/C: 82.3%
Second compound 3.16 µM, first compound 10 µM
  viability, T/C: 4.17%
[27]
  viability, T/C: 66.5%
[28]
  viability, T/C: 63.2%
[29]
  viability, T/C: 63.2%
[30]
  viability, T/C: 60.9%
Second compound 10 µM, first compound 3.16 µM
  viability, T/C: 57%
Second compound 10 µM, first compound 10 µM
  viability, T/C: 3.67%
